Legend:
[1] = test system: nucleases in saliva samples; type: biochemical, human; conditions: for degradation of RNA in saliva samples obtained from nuclease-rich donors: pH 5.2; for rRNA doublet integrity and RIN in saliva: pH 4.71; for RNA stability and RIN as pH decreased: pH 5; for rRNA doublet and RIN of spiked RNA in saliva: T2
[2] = test system: nucleases in stool samples; type: biochemical, human; conditions: pH 4.7
[3] = test system: RNAse activity in saliva samples; test: Nuclease assay (RNAseAlert) in saliva mixed 1:1 with formulation; type: biochemical, human; conditions: ATA 5 mM final; PAAc at pH 4.7; CDTA when ATA was present; saliva 1:1
[4] = Solubility of salts in the present composition; conditions: 4% SDS/100 mM CDTA/10 mM ATA/10 mg/mL PAAc

O[C@H](CS)[C@H](O)CS (racemic) [dithiothreitol]
degradation of RNA in saliva samples obtained from nuclease-rich donors [1]: Degradation of RNA

O=C(O)c1cc(SSc2ccc([N+](=O)[O-])c(C(=O)O)c2)ccc1[N+](=O)[O-] [5,5-dithio-bis-(2-nitrobenzoic acid)]
degradation of RNA in saliva samples obtained from nuclease-rich donors [1]: Degradation of RNA

O=C(O)c1cc2cccc([N+](=O)[O-])c2[nH]1 [7-nitroindole-2-carboxylic acid]
degradation of RNA in saliva samples obtained from nuclease-rich donors [1]: Degradation of RNA

O=C(O)CN(CC(=O)O)C1CCCCC1N(CC(=O)O)CC(=O)O (centres unmarked) [CDTA, 1,2-cyclohexanediaminetetraacetic acid]
RIN and rRNA doublet of spiked RNA in stool [2]: RIN values increased and rRNA doublet remained intact
effect on RNAse activity of addition to guanidinium salt-based compositions [3]: minimal effect on RNAse activity

CCCCCCCCCCCCCCCC[N+](C)(C)C.[Br-] [CTAB, Cetyltrimethylammonium bromide]
rRNA doublet integrity and RIN in saliva [1]: doublet was degraded and the RIN was significantly reduced

O=C(O[C@@H]1Cc2c(O)cc(O)cc2O[C@@H]1c1cc(O)c(O)c(O)c1)c1cc(O)c(O)c(O)c1 [EGCG, epigallocatechin gallate]
degradation of RNA in saliva samples obtained from nuclease-rich donors [1]: did not prevent degradation of RNA

N#CS.N=C(N)N [GTC, guanidinium thiocyanate]
relative effectiveness for stabilizing RNA at low pH [1]: more effective than GuHCl
RNA stability and RIN as pH decreased [1]: surprising improvement in RNA stability and corresponding increase in RIN

Cl.N=C(N)N [GuHCl, guanidinium hydrochloride]
RNA stability and RIN as pH decreased [1]: surprising improvement in RNA stability and corresponding increase in RIN

[Cl-].[K+] [KCl]
solubility in the present composition [4]: solubility issues

O=S(=O)([O-])[O-].[Li+].[Li+] [Li2SO4, lithium sulphate]
rRNA doublet and RIN of spiked RNA in saliva [1]: rRNA doublet was intact and the RIN was high

[Cl-].[Li+] [LiCl, lithium chloride]
rRNA doublet and RIN of spiked RNA in saliva [1]: rRNA doublet was intact and the RIN was high

[Cl-].[Na+] [NaCl, sodium chloride]
rRNA doublet and RIN of spiked RNA in saliva [1]: rRNA doublet was intact and the RIN was high

CCCCCCCCCCCCOS(=O)(=O)[O-].[Na+] [SDS, sodium dodecyl sulfate]
rRNA doublet integrity and RIN in saliva [1]: able to preserve the integrity of rRNA

N[C@H]1C(O)O[C@H](COP(=O)(O)O)[C@@H](O)[C@@H]1O (some centres unmarked) [glucosamine 6-phosphate]
degradation of RNA in saliva samples obtained from nuclease-rich donors [1]: Degradation of RNA

O=S(=O)(O)c1cc(O)c2c(O)c(/N=N/c3cccc4ccccc34)c(S(=O)(=O)O)cc2c1 [pontacyl violet 6R]
degradation of RNA in saliva samples obtained from nuclease-rich donors [1]: Degradation of RNA

Cc1ccc(S(=O)(=O)O)cc1.[Na] [sodium p-toluenesulfonate]
degradation of RNA in saliva samples obtained from nuclease-rich donors [1]: Degradation of RNA

O=C(O)CCP(CCC(=O)O)CCC(=O)O [tris(2-carboxyethyl)phosphine]
degradation of RNA in saliva samples obtained from nuclease-rich donors [1]: Degradation of RNA

OCCS [β-2-mercaptoethanol]
degradation of RNA in saliva samples obtained from nuclease-rich donors [1]: Degradation of RNA

ribonucleoside vanadyl complexes
degradation of RNA in saliva samples obtained from nuclease-rich donors [1]: Degradation of RNA

sodium lauroyl sarcosinate [Sarkosyl]
rRNA doublet integrity and RIN in saliva [1]: doublet was degraded and the RIN was significantly reduced

B1: recombinant human placental RNAse inhibitor (protein, UniProt P13489 2-461, looked up)
Ribonuclease inhibitor: SLDIQSLDIQCEELSDARWAELLPLLQQCQVVRLDDCGLTEARCKDISSALRVNPALAELNLRSNELGDVGVHCVLQGLQTPSCKIQKLSLQNCCLTGAGCGVLSSTLRTLPTLQELHLSDNLLGDAGLQLLCEGLLDPQCRLEKLQLEYCSLSAASCEPLASVLRAKPDFKELTVSNNDINEAGVRVLCQGLKDSPCQLEALKLESCGVTSDNCRDLCGIVASKASLRELALGSNKLGDVGMAELCPGLLHPSSRLRTLWIWECGITAKGCGDLCRVLRAKESLKELSLAGNELGDEGARLLCETLLEPGCQLESLWVKSCSFTAACCSHFSSVLAQNRFLLELQISNNRLEDAGVRELCQGLGQPGSVLRVLWLADCDVSDSSCSSLAATLLANHSLRELDLSNNCLGDAGILQLVESVRQPGCLLEQLVLYDIYWSEEMEDRLQALEKDKPSLRVIS
degradation of RNA in saliva samples obtained from nuclease-rich donors [1]: Degradation of RNA

Reference: patent US20240271184A1, “LOW PH COMPOSITION AND METHOD FOR S[…] ACIDS IN BIOLOGICAL SAMPLES” (priority 2021, published 2024)
